# Data: ChEMBL document CHEMBL1201862, “PubChem BioAssay data set” (2004)
# Active and inactive are the calls of the source.
# How the values were obtained:
# HEK293 [1] = experiment: HEK cell cytotoxicity by LDH release, dose response, cytotoxicity control for IDE activator project, fluorescence, HEK cells (AID 588440); assay type: functional, cell-based; settings: Homo sapiens;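 further: cytotoxicity by LDH release measuring loss of membrane integrity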
# Insulin-degrading enzyme [2] = target: T1, Insulin-degrading enzyme (Homo sapiens, UniProt P14735); experiment: activators of recombinant IDE enzyme, dose response, counter-screen for IDE activator project, biochemical, fluorescence polarization (AID 588681)
# T1 sequence (P14735 whole entry): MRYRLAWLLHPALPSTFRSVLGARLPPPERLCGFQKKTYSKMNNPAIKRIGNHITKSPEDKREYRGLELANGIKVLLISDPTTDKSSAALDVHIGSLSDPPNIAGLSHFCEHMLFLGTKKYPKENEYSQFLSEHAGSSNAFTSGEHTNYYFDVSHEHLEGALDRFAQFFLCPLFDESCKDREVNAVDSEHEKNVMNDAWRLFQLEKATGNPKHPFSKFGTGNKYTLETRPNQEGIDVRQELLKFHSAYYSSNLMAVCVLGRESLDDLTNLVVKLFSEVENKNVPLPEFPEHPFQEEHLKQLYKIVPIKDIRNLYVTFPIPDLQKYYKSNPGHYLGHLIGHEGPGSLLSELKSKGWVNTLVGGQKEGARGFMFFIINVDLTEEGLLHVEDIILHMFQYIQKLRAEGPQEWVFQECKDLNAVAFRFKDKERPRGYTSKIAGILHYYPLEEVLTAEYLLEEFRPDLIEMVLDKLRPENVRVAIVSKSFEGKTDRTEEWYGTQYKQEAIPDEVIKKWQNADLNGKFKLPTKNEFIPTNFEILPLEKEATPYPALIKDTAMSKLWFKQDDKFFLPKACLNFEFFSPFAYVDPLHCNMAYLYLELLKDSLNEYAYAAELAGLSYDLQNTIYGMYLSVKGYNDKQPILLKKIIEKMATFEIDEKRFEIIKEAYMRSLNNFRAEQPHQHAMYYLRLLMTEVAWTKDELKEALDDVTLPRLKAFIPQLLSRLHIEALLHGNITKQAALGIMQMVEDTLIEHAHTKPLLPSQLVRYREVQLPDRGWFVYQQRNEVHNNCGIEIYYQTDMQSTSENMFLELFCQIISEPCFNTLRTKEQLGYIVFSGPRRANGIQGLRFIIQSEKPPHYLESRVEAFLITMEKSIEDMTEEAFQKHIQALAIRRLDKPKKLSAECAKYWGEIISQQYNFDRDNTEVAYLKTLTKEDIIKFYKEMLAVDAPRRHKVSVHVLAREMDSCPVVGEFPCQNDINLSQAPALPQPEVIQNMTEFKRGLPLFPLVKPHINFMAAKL
# Insulin-degrading enzyme [3] = target: T1, Insulin-degrading enzyme; experiment: activators of endogenous IDE in HEK cells, dose response, cell-based, fluorescence polarization (AID 588439); assay type: functional
# HEK293 [4] = experiment: optical interference in Abeta FP readout, dose response, artefact control for IDE activator project, biochemical, fluorescence polarization (AID 588442); assay type: functional, cell-based; settings: Homo sapiens
# [5] = Luminescence Cell-Based Dose Retest to Confirm Inhibitors of Cancer Stem Cells. [Related pubchem assays (depositor defined):AID2717, AID2721]; assay type: functional; settings: Homo sapiens
# [6] = target: Photoreceptor-specific nuclear receptor (Homo sapiens, UniProt Q9Y5X4); assay type: functional, cell-based;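 further: CHO-S cells with Gal4-NCOR and VP16-NR2E3 two-hybrid luciferase reporter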
# Photoreceptor-specific nuclear receptor, sequence (Q9Y5X4 whole entry, the tested form may be a part): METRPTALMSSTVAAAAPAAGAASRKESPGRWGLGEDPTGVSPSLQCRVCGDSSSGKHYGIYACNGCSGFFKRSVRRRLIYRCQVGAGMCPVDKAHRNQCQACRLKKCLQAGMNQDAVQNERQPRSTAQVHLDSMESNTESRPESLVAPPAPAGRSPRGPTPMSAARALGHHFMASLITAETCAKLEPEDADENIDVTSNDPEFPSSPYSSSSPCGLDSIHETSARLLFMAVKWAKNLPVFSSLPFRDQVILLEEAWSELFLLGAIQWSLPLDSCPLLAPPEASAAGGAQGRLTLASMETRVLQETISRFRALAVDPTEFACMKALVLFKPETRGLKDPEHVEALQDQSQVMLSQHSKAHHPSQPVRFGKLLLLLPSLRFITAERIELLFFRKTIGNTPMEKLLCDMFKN
# [7] = inhibitors of intracellular T. cruzi replication, confirmation, NIH3T3 host cells, beta-gal luminescence (AID 2044); assay type: functional, cell-based;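 further: intracellular parasites grown in NIH/3T3 mouse fibroblasts as host cells; luminescent beta-galactosidase reporter signal from transgenic T. cruzi replicating inside host cells; inhibitors lower the luminescence signal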
# [8] = cytotoxicity toward NIH3T3 fibroblasts, dose response, counter-screen, cell-based, ATP luminescence, mouse fibroblasts (AID 2010); assay type: functional;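 further: cells exposed to compound for about 90 hours before reading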
# [9] = target: Serine/threonine-protein phosphatase PP1-alpha catalytic subunit (Homo sapiens, UniProt P62136); experiment: PP1 phosphatase inhibitors, dose response, biochemical, fluorescence (AID 2403);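 further: phosphatase turnover of OMFP into fluorescent 3-O-methylfluorescein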
# Serine/threonine-protein phosphatase PP1-alpha catalytic subunit, sequence (P62136 whole entry): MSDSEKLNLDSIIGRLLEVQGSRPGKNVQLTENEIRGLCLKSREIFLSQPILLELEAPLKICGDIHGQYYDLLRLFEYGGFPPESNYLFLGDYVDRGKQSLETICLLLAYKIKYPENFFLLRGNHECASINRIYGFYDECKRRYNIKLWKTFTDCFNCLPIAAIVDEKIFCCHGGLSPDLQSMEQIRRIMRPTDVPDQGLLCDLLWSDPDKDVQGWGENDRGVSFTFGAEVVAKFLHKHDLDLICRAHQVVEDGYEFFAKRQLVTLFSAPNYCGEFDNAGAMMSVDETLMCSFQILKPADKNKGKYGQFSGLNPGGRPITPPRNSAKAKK
# [10] = target: Latent membrane protein 1 (Human herpesvirus 4 (strain B95-8), UniProt P03230); experiment: TES1-eGFP NF-kB reporter inhibition versus Tet-On dsRED, dose response, selectivity assay for LMP1 NF-kB inhibitor project, imaging, HEK293T, dual-color eGFP/dsRED, cherry-picks (AID 588398); assay type: functional, cell-based
# Latent membrane protein 1, sequence (P03230 whole entry): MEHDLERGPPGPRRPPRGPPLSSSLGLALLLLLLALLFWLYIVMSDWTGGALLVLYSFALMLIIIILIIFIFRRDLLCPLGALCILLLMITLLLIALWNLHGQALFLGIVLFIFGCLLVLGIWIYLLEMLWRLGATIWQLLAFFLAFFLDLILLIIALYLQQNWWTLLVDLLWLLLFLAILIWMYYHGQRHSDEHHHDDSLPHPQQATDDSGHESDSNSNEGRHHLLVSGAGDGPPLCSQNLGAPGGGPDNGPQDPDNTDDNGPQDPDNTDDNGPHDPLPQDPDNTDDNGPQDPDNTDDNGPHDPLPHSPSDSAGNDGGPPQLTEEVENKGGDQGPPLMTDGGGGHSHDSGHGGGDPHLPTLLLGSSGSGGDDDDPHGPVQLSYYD
# INS1 [11] = experiment: beta cell apoptosis inhibitors, cytokine rescue, dose response, luminescence, retest (AID 449756); assay type: functional, cell-based; settings: Rattus norvegicus;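 further: cell death triggered by IL-1 beta plus TNF-alpha plus IFN-gamma mixture; protective hits raise ATP signal compared with cytokine alone wells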
# [12] = C. albicans growth with fluconazole, confirmation, fluorescence, retest (AID 2467); assay type: functional, cell-based
# [13] = target: Serine/threonine-protein phosphatase (Homo sapiens, UniProt Q9BPW0); experiment: Counterscreen for inhibitors of PP1: fluorescence-based biochemical high throughput dose response assay to identify inhibitors of Protein Phosphatase 5 (PP5). [Related pubchem assays: 2034 (Summary (PP5 inhibitors)), 1987 (PP5 inhibitors in singlate), 2235 (PP1 inhibitors in singlate)]
# Serine/threonine-protein phosphatase, sequence (Q9BPW0 whole entry): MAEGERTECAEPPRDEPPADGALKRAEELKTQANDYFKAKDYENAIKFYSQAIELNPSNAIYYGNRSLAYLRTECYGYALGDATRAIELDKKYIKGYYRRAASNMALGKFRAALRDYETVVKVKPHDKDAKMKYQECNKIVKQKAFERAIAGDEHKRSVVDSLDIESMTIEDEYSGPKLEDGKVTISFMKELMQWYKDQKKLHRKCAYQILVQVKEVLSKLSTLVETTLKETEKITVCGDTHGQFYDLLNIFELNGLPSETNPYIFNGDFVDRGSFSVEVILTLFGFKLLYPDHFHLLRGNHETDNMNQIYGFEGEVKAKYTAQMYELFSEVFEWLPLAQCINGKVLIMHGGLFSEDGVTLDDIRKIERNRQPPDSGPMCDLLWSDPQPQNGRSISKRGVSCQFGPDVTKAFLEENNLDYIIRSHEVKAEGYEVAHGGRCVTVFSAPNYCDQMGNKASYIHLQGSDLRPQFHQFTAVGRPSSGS
# HEK293 [14] = experiment: inhibitors of LMP1-driven NF-kB reporter, dose response, cell-based, HEK293, luciferase, cherry-pick (AID 588343); assay type: functional; settings: Homo sapiens
# [15] = NIH-3T3 fibroblast cytotoxicity, dose response, cytotoxicity control, cell-based, fluorescence, Alamar Blue, secondary assay (AID 2327); assay type: functional;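 further: NIH-3T3 mouse fibroblasts cultured with fluconazole at 8 µg/mL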
# INS1 [16] = experiment: inhibitors of cytokine-induced nitrite release, dose response, cell-based, Griess absorbance, INS-1E, dry powder, set 2 (AID 488868); assay type: functional; settings: Rattus norvegicus
# [17] = target: T2, Orexin/Hypocretin receptor type 1 (Homo sapiens, UniProt O43613); experiment: (§1) Fluorescence-based cell-based high throughput dose response assay for antagonists of the orexin 1 receptor (OX1R; HCRTR1). [Related pubchem assays (depositor defined):AID434989, AID435008, AID463079, AID485270, AID492963, AID492964, AID492965, AID493232, AID504717, AID504718]; assay type: functional
# T2 sequence (O43613 whole entry): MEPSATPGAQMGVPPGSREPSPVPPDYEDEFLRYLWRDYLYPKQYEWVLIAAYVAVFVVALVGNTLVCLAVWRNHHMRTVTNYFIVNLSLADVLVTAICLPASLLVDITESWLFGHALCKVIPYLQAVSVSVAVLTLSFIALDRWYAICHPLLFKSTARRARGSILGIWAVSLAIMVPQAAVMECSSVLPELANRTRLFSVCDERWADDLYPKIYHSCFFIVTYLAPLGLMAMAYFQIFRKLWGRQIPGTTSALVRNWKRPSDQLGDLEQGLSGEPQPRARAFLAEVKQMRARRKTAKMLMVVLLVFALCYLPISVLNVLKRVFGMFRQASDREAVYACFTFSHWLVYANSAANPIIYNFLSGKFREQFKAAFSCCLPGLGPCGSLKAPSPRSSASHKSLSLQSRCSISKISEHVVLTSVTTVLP
# [18] = (§2) Counterscreen for antagonists of the orexin 1 receptor (OX1R; HCRTR1): Fluorescence-based cell-based high throughput dose response assay to identify antagonists of the parental CHO cell line. [Related pubchem assays (depositor defined):AID434989, AID435008, AID463079, AID485270, AID492963, AID492964, AID492965, AID493232, AID504699, AID504701]; assay type: functional
# Orexin receptor type 2 [19] = target: T3, Orexin receptor type 2 (Homo sapiens, UniProt O43614); experiment: Counterscreen assay for antagonists of the orexin 1 receptor (OX1R; HCRTR1): Fluorescence-based cell-based dose response assay for antagonists of the orexin 2 receptor (OX2R; HCRTR2), run by assay provider.; assay type: functional
# T3 sequence (O43614 whole entry): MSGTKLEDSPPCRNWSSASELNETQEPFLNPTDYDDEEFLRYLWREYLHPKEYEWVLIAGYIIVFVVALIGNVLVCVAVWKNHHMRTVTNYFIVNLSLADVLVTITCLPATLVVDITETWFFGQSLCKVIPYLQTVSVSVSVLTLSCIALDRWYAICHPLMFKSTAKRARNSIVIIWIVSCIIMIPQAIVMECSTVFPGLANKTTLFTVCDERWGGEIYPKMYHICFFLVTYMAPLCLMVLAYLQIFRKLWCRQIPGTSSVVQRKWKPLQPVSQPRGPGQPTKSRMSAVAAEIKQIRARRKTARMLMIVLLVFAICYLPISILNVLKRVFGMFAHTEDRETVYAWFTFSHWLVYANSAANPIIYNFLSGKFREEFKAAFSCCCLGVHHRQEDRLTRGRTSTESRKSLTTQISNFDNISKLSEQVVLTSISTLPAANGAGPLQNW
# Orexin receptor type 2 [20] = target: T3, Orexin receptor type 2; experiment: Counterscreen assay for antagonists of the orexin 1 receptor (OX1R; HCRTR1): Homogeneous Time Resolved Fluorescence (HTRF)-based cell-based dose response assay for antagonists of the orexin 2 receptor (OX2R; HCRTR2), run by assay provider.; assay type: functional
# [21] = target: T2, Orexin/Hypocretin receptor type 1; experiment: as §1, with “Homogeneous Time Resolved Fluorescence (HTRF)-based” for “Fluorescence-based”; assay type: functional
# CHO-K1 = experiment: as §2, with “Homogeneous time resolved fluorescence (HTRF)-based” for “Fluorescence-based”, “cell-based” for “cell-based high throughput”, “CHO-K1” for “CHO”; assay type: functional; settings: Cricetulus griseus;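 further: potency for inhibition of ATP-stimulated IP1 production as antagonists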
smiles,measurement,setting,value
C=CCN1C(=O)/C(=C2\C(=O)Nc3ccccc32)S/C1=N/c1ccc(O)cc1,IC50,HEK293 [1],26.6 µM (inactive)
same,EC50,Insulin-degrading enzyme [2],> 54.7 µM (inactive)
same,EC50,Insulin-degrading enzyme [3],16.6 µM (inactive)
same,EC50,HEK293 [4],> 54.7 µM (inactive)
same,AC50,[5],4.14 µM (active)
COc1cnc(-c2ccccn2)nc1Sc1ccccc1Cl,IC50,[6],4.25 µM (active)
same,EC50,[7],2.36 µM (active)
same,EC50,[8],> 60 µM (not active)
same,IC50,[9],7.8 µM (active)
same,AC50,[10],15.4 µM (active)
same,AC50,INS1 [11],7.29 µM (active)
same,EC50,[12],> 38 µM (not active)
same,IC50,[13],59.1 µM (not active)
same,AC50,HEK293 [14],112 µM (active)
same,EC50,[15],> 150 µM (inconclusive)
C[C@@H]1CN([C@@H](C)CO)C(=O)c2cccc(NC(=O)Nc3cccc4ccccc34)c2O[C@H]1CN(C)S(=O)(=O)c1cccs1,AC50,INS1 [16],206 µM (active)
Cc1cc(Cl)ccc1OCCCC(=O)NCCN1C(=O)S/C(=C\c2cccnc2)C1=O,IC50,[17],1.13 µM (active)
same,IC50,[18],21.1 µM (inactive)
same,IC50,Orexin receptor type 2 [19],17.5 µM (inactive)
same,IC50,Orexin receptor type 2 [20],> 50 µM (inactive)
same,IC50,[21],0.264 µM (active)
same,IC50,CHO-K1,> 66.2 µM (inactive)
